Experimental data from patent US20140322076A1, “ANTIMICROBIAL COMPOSITION” (priority 2011, published 2014).

Experiments:
[1] = system: Escherichia coli (10536 strain); test: Antimicrobial efficacy, 15 seconds contact suspension assay (Examples 1 and 3); format: cell-based; settings: contact time 15 seconds; for NMBS (mean bacterial survival): phenol and terpineol concentration (% w/v) as given per example, 0 = complete kill, triplicate; for NMBS: Example 3, gamma-terpineol, concentrations (% w/v) as given per example
Procedure: The efficacies of antimicrobial agents can be usefully compared by determining the Minimum Biocidal Concentration (MBC). The MBC is defined as the lowest absolute concentration of the particular active that provides complete kill (zero bacterial growth).
ΣFBC=FBC(component 1)+FBC(component 2)+FBC(component 3)+ . . . etc
such that • ΣFBC≧1 corresponds to additive or antagonistic bactericidal activity • ΣFBC<1 corresponds to synergistic bactericidal activity
Antimicrobial efficacy is tested against a representative pathogenic bacterial organism, Gram negative Escherichia coli. Concentrations of actives are expressed in terms of the percentage weight/volume (% w/v) throughout Example 1.
An overnight culture of Escherichia coli (10536 strain) was prepared in 50 ml total volume of TSB broth, grown for ca. 18 hrs at 37° C. and shaken at 150 rpm. 1 ml of this overnight E. coli culture was transferred to 50 ml of fresh TSB broth and incubated at 37° C. at 150 rpm for ca. 4 hours. This culture was separated into equal volumes and centrifuged at 4000 rpm for 15 minutes, washed with sterile saline (0.85% NaCl), centrifuged once more and re-suspended in saline to give a final concentration of 0.8 OD620 equivalent to about 10^8 cells per millilitre for this particular organism. Here, OD620 indicates the absorbance of a sample in a cuvette of 1.0 cm path length at a wavelength of 620 nm. This bacterial stock was used for assaying against antimicrobial actives (in triplicate).
The following assay describes the testing of 8 materials using 6 dilutions across half of a 96-well micro titre plate (MTP). Using this approach it is possible to assay 16 actives (without replicates) with one full dilution plate, replicating this set up in two halves of the plate columns, 1-6 and 7-12.
1M solutions of the test actives were prepared in dimethylsulphoxide (DMSO).
Aliquots (270 μl) of the materials at 1.11 times the final concentration were dispensed into the wells of the MTP along one column (A1-H1). This MTP was labelled as the “Screening plate”.
In another MTP, labelled as the “Dilution plate”, 270 μl of D/E neutralising solution from DIFCO Composition was added to column 1. The composition of the neutralising solution was as follows: pancreatic digest of casein, 5.0 g/L; Yeast Extract, 2.5 g/L; Dextrose, 10 g/L, sodium thioglycollate, 1.0 g/L, sodium thiosulphate, 6.0 g/L; sodium bisulphite, 2.5 g/L; Polysorbate 80, 5.0 g/L; lecithin 7.0 g/L; bromocresol purple, 0.02 g/L with a pH in the range 7.6±0.2.
270 μl of tryptone diluent solution was added to all the remaining wells of the Dilution MTP (columns 2-6).
Bacterial stock (30 μl) was then added to the prepared 270 μl of the solution of actives in the Screening Plate and mixed, using a multichannel pipette with 8 tips to aspirate and dispense the same volume of bacterial stock in parallel to 8 wells in rows A-H. After a contact time of 15 seconds, the mixtures were quenched by transferring 30 μl volumes of the mixtures into the 270 μl D/E neutralising solution in the prepared dilution plate, using aspiration to mix. After exactly 5 minutes in the D/E neutralising solution, 30 μl volumes were transferred from column 1 to column 2 of the Dilution MTP and mixed, before transferring further 30 μl volumes from column 2 into column 3. This process was repeated serially diluting the bacteria across the plate to column 6.
30 μl volumes from each well in the Dilution MTP were transferred onto pre-labelled segment of Tryptone Soya Agar (TSA) plates starting from the lowest bacterial concentration (highest dilution, column 6) to the highest bacterial concentration (column 1). The TSA plates were allowed to stand for ca. 2 hours so that the 30 μl inocula spots could dry and the plates were then inverted and incubated overnight at 37° C. before enumerating the bacterial colonies at the labelled dilutions to determine the effects of the actives on bacterial growth.

[2] = system: Escherichia coli (E. coli - ATCC #10536); test: Automated assessment of efficacy in surfactant base (Example 4); format: cell-based; settings: 15 seconds exposure; for DeltaOD (450 nm) Mean: OD450 (16 hours) − OD450 (time zero), 2.85% sodium cocoyl glycinate + 1.85% sodium lauroamphoacetate; for DeltaOD (450 nm) Mean / DeltaOD (590 nm) Mean: pH 10; for DeltaOD (590 nm) Mean: OD590 (16 hours) − OD590 (time zero), same surfactant solution; for Nrep = No. of replicates showing growth (out of 4): surfactant solution pH 10
Procedure: In these examples, the efficacy of combinations of isopropylmethylphenols and terpineol were tested in a surfactant cleansing formulation comprising 2.85% sodium cocoyl glycinate and 1.85% sodium lauroamphoacetate. This corresponds to a 50% in use dilution with water of a typical neat formulation containing 5.7% cocoyl glycinate and 3.7% % sodium lauroamphoacetate during hand washing. Solutions were prepared such that the concentrations of the surfactant components and test actives were 1.1 times the final desired concentration in order to allow for dilution with the bacterial inoculum in the test. The solutions were manually adjusted to pH 10.0 by dropwise addition of sodium hydroxide solution, as measured with a pH meter at ambient temperature. Solutions of the isopropylmethylphenols and/or terpineols were prepared at a maximum of 24 hours before testing. The same terpineol was used as in Example 1.
The efficacy of the combinations of the present invention was determined against the same bacterium as in Example 1, Escherichia coli (E. coli—ATCC #10536), at a concentration of approximately 1×10^8 bacteria per mL.
Tests were conducted using standard microtiter plate assays using an automated liquid handling system. 270 μl of the surfactant test solution was pipetted into each well of the microtitre plate (Nunc F Gamma Irradiated 96F untreated microtitre plates of clear polystyrene) and 30 μl of the bacterial suspension was then added. After exactly 15 seconds of bacterial exposure, a 30 μl volume of bacterial cells was withdrawn and transferred to 270 μl of D/E quench solution. After 5 minutes in the D/E quench, the optical density (OD) was measured for each plate in turn at two specific wavelengths (450 nm and 590 nm). These provide a dual check of antimicrobial activity, as the OD450 reading is specific for the yellow colour of D/E quench when bacterial growth is observed, whereas OD590 is specific for the initial purple colour of the D/E quench which is retained if no bacterial growth is observed. After the time zero OD measurements, plates were then incubated at 37° C. overnight (16 hours) before repeating the OD measurements. Delta OD values were calculated by subtracting […] at time=16 hours.
Bacterial growth is observed as an increase in OD450 and a decrease in OD590. To identify antibacterially efficacious systems (those preventing appreciable bacterial growth after incubation), the following threshold changes in OD readings have been adopted: if (1). OD450 increases by less than 0.2 absorbance unit (AU) on incubation and (2). OD590 decreases by less than 0.35 AU on incubation. Conversely, where OD450 increases by more than 0.1 AU and OD590 decreases by more than 0.1 AU after incubation, corresponding to a colour shift from purple to yellow, the test system allows bacterial growth and is not deemed efficacious. Four replicate measurements in the same plate have been made for each test system. The number of replicate wells showing either bacterial growth or no growth is also readily assessed by eye by following the colour change. Thymol and terpineol were tested both alone and in combination for comparison purposes.
In each case, binary mixtures were assessed in the weight to weight ratio isopropylmethylphenol to alpha terpineol of 1:2.5.

Structure (SMILES)	NMBS (mean bacterial survival) [1]	NMBS [1]	DeltaOD (450 nm) Mean [2]	DeltaOD (590 nm) Mean [2]	Nrep = No. of replicates showing growth (out of 4) [2]
Cc1ccc(C(C)C)c(O)c1 [1:1, thymol]	0 log CFU/ml				
Cc1ccc(C(C)C)c(O)c1 [1:2, thymol]	0 log CFU/ml				
Cc1ccc(C(C)C)c(O)c1 [1:3, thymol]	>7 log CFU/ml				
CC1=CCC(O)(C(C)C)CC1 (centres unmarked) [1:4, terpineol]	0 log CFU/ml				
CC1=CCC(O)(C(C)C)CC1 (centres unmarked) [1:5, terpineol]	0 log CFU/ml				
CC1=CCC(O)(C(C)C)CC1 (centres unmarked) [1:6, terpineol]	7 log CFU/ml				
CC1=CCC(O)(C(C)C)CC1 (centres unmarked) [1:7, terpineol]	7 log CFU/ml				
Cc1cc(O)cc(C(C)C)c1 [1:8, 3-isopropyl-5-methylphenol]	0 log CFU/ml				
Cc1cc(O)cc(C(C)C)c1 [1:9, 3-isopropyl-5-methylphenol]	7.6 log CFU/ml				
Cc1cc(O)ccc1C(C)C [1:12, 4-isopropyl-3-methylphenol]	0 log CFU/ml				
Cc1cc(O)ccc1C(C)C [1:13, 4-isopropyl-3-methylphenol]	7.6 log CFU/ml				
CC(C)=C1CCC(C)(O)CC1 (centres unmarked) [3:1, gamma-terpineol]		0 log CFU/ml			
CC(C)=C1CCC(C)(O)CC1 (centres unmarked) [3:2, gamma-terpineol]		0 log CFU/ml			
CC(C)=C1CCC(C)(O)CC1 (centres unmarked) [3:3, gamma-terpineol]		0 log CFU/ml			
Cc1ccc(C(C)C)c(O)c1 [4:2, thymol]			−0.54	0.64	4
Cc1ccc(C(C)C)c(O)c1 [4:3, thymol]			−0.54	0.56	4
Cc1ccc(C(C)C)c(O)c1 [4:4, thymol]			−0.57	0.55	4
Cc1ccc(C(C)C)c(O)c1 [4:5, thymol]			−0.58	0.55	4

Structure (SMILES)	NMBS (mean bacterial survival) [1]	NMBS [1]	DeltaOD (450 nm) Mean [2]	DeltaOD (590 nm) Mean [2]	Nrep = No. of replicates showing growth (out of 4) [2]
Cc1ccc(C(C)C)c(O)c1 [4:6, thymol]			−0.58	0.54	4
Cc1ccc(C(C)C)c(O)c1 [4:7, thymol]			−0.59	0.54	4
Cc1ccc(C(C)C)c(O)c1 [4:8, thymol]			−0.58	0.55	4
Cc1ccc(C(C)C)c(O)c1 [4:9, thymol]			−0.55	0.65	4
CC1=CCC(O)(C(C)C)CC1 (centres unmarked) [4:10, terpineol]			−0.45	0.64	4
CC1=CCC(O)(C(C)C)CC1 (centres unmarked) [4:11, terpineol]			−0.47	0.59	4
CC1=CCC(O)(C(C)C)CC1 (centres unmarked) [4:12, terpineol]			−0.48	0.58	4
CC1=CCC(O)(C(C)C)CC1 (centres unmarked) [4:13, terpineol]			−0.51	0.57	4
CC1=CCC(O)(C(C)C)CC1 (centres unmarked) [4:14, terpineol]			−0.54	0.56	4
CC1=CCC(O)(C(C)C)CC1 (centres unmarked) [4:15, terpineol]			−0.56	0.55	4
CC1=CCC(O)(C(C)C)CC1 (centres unmarked) [4:16, terpineol]			−0.57	0.55	4
CC1=CCC(O)(C(C)C)CC1 (centres unmarked) [4:17, terpineol]			−0.53	0.67	4
Cc1cc(O)cc(C(C)C)c1 [4:18, 3-isopropyl-5-methylphenol]			−0.54	0.63	4
Cc1cc(O)cc(C(C)C)c1 [4:19, 3-isopropyl-5-methylphenol]			−0.53	0.58	4
Cc1cc(O)cc(C(C)C)c1 [4:20, 3-isopropyl-5-methylphenol]			−0.56	0.57	4
Cc1cc(O)cc(C(C)C)c1 [4:21, 3-isopropyl-5-methylphenol]			−0.57	0.56	4
Cc1cc(O)ccc1C(C)C [4:26, 4-isopropyl-3-methylphenol]			−0.46	0.67	4
Cc1cc(O)ccc1C(C)C [4:27, 4-isopropyl-3-methylphenol]			−0.48	0.58	4
